Measurements from paper PMC13288994, “Identification and characterization of novel chikungunya virus polymerase inhibitors” (Journal of Virology, 2026).
Read-outs that look alike come from different tables or passages of the source.

How the values were obtained:
[1] = tested on: CHIKV-nLuc (181/25 strain); test: microbe, parasite or virus in culture; format: cell-based, Chikungunya virus; conditions: 5 µM, 384-well format, read 20 h after infection
VEEV-TC83-nLuc = test: microbe, parasite or virus in culture; format: cell-based; conditions: read-out: Antiviral potency (EC50 [µM]) VEEV
SINV-GLuc = test: microbe, parasite or virus in culture; format: cell-based; conditions: VeroE6 cells; read-out: Antiviral potency (EC50 [µM]) SINV
HPIV3-nLuc = test: microbe, parasite or virus in culture; format: cell-based; conditions: VeroE6 cells; read-out: Antiviral potency (EC50 [µM]) HPIV3
SARS-CoV-2-nLuc = test: microbe, parasite or virus in culture; format: cell-based; conditions: VeroE6-TMPRSS2 cells; read-out: Antiviral potency (EC50 [µM]) SARS-CoV-2
RSV A2-L19F = test: microbe, parasite or virus in culture; format: cell-based; conditions: Hep-2 cells; read-out: Antiviral potency (EC50 [µM]) RSV
VSV-nLuc = test: microbe, parasite or virus in culture; format: cell-based; conditions: read-out: Antiviral potency (EC50 [µM]) VSV
CHIKV-nLuc [2] = test: microbe, parasite or virus in culture; format: cell-based, Chikungunya virus; conditions: MOI 0.1 FFU/cell, 24 hpi, in-house synthesized compound; read-out: EC50 CHIKV-nLuc, U-2 OS
CHIKV-nLuc [3] = test: microbe, parasite or virus in culture; format: cell-based, Chikungunya virus; conditions: MOI 0.1 FFU/cell, 24 hpi, in-house synthesized compound; read-out: EC50 CHIKV-nLuc, NHDF
U-2 OS cells [4] = test: Cytotoxicity assay (PrestoBlue, 24 h) in U-2 OS cells; format: cell-based, Human
NHDF cells = test: Cytotoxicity assay (PrestoBlue, 24 h) in NHDF cells; format: cell-based, Human
Protocol: NHDF cells were seeded at 10,000 cells per well in 24-well plates and cultured for 24 h. Cells were then treated with threefold serial dilutions of compounds starting at 500 µM and incubated for 24 h. DMSO was included as a negative control for normalization. Following treatment, cells were incubated with PrestoBlue reagent (ThermoFisher Scientific) for 1 h at 37°C, and fluorescence was measured using a PerkinElmer Victor X5 multilabel plate reader. The CC50 values were determined by normalized non-linear regression with a variable slope model in Prism (GraphPad).

CHIKV 181/25 = test: Virus yield dose-response in U-2 OS cells, CHIKV; format: cell-based, Chikungunya virus
ONNV = test: organism not typed; format: cell-based, o'nyong-nyong virus; conditions: read-out: EC50 virus production, ONNV
RRV = test: microbe, parasite or virus in culture; format: cell-based, Ross River virus; conditions: read-out: EC50 virus production, RRV
SINV = test: microbe, parasite or virus in culture; format: cell-based, Sindbis virus; conditions: read-out: EC50 virus production, SINV
MAYV = test: microbe, parasite or virus in culture; format: cell-based, Mayaro virus; conditions: read-out: EC50 virus production, MAYV
SFV = test: microbe, parasite or virus in culture; format: cell-based, Semliki Forest virus; conditions: read-out: EC50 virus production, SFV
[5] = biological target: T1, CHIKV trans-replicase (P1234) (Chikungunya virus, UniProt Q8JUX6); test: Trans-replicase assay, CHIKV; format: cell-based; conditions: 100 µM, U-2 OS, 20 h
T1 construct: expression of the P1234 polyprotein drives replication of a reporter RNA template; expressed in transfected cells; host or cells: U-2 OS
Protocol: (§1) U-2 OS cells were seeded at 75,000 cells per well in 24-well plates and cultured for 24 h. Cells were then co-transfected with 250 ng of plasmid encoding template RNA and 250 ng of plasmid encoding P1234 WT ([72], [73]), using Lipofectamine LTX with PLUS reagent (ThermoFisher Scientific) following the manufacturer’s instructions. After 4 h of post-transfection, medium containing 100 µM of compounds or DMSO was added to the cells. Cells were then incubated for 20 h, lysed, and GLuc activity was quantified using the Dual-Luciferase Reporter Assay System (Promega). Luciferase activities were normalized to those of the DMSO-treated controls.

[6] = biological target: T2, ONNV trans-replicase (P1234) (O'nyong-nyong virus, UniProt P13886); test: Trans-replicase assay, ONNV; format: cell-based; conditions: 100 µM, U-2 OS, 20 h
T2 construct: expression of the P1234 polyprotein drives replication of a reporter RNA template; expressed in transfected cells; host or cells: U-2 OS
Protocol: as §1

[7] = biological target: T3, RRV trans-replicase (P1234) (Ross river virus, UniProt P13887); test: Trans-replicase assay, RRV; format: cell-based; conditions: 100 µM, U-2 OS, 20 h
T3 construct: expression of the P1234 polyprotein drives replication of a reporter RNA template; expressed in transfected cells; host or cells: U-2 OS
Protocol: as §1

[8] = biological target: T4, SINV trans-replicase (P1234) (Sindbis virus, UniProt P03317); test: Trans-replicase assay, SINV; format: cell-based; conditions: 100 µM, U-2 OS, 20 h
T4 construct: expression of the P1234 polyprotein drives replication of a reporter RNA template; expressed in transfected cells; host or cells: U-2 OS
Protocol: as §1

[9] = biological target: T5, SFV trans-replicase (P1234) (Semliki forest virus, UniProt P08411); test: Trans-replicase assay, SFV; format: cell-based; conditions: 100 µM, U-2 OS, 20 h
T5 construct: expression of the P1234 polyprotein drives replication of a reporter RNA template; expressed in transfected cells; host or cells: U-2 OS
Protocol: as §1

[10] = biological target: T6, BFV trans-replicase (P1234) (Barmah forest virus, UniProt P87515); test: Trans-replicase assay, BFV; format: cell-based; conditions: 100 µM, U-2 OS, 20 h
T6 construct: expression of the P1234 polyprotein drives replication of a reporter RNA template; expressed in transfected cells; host or cells: U-2 OS
Protocol: as §1

[11] = biological target: EEEV trans-replicase (P1234) (Eastern equine encephalitis virus, UniProt Q306W6); format: cell-based
[12] = biological target: WEEV trans-replicase (P1234) (Western equine encephalitis virus, UniProt P13896); format: cell-based
[13] = biological target: VEEV trans-replicase (P1234) (Venezuelan equine encephalitis virus, UniProt P36328); format: cell-based
[14] = tested on: EILV trans-replicase (P1234); test: Trans-replicase assay, EILV; format: cell-based, Eilat virus; conditions: 100 µM, U-2 OS, 20 h
Protocol: as §1

CHIKV-nLuc [15] = format: cell-based, Chikungunya virus; conditions: 20 µM, U-2 OS, reporter read at 24 h
CHIKV replicon = conditions: read-out: Antiviral potency (EC50 [µM]) CHKV replicon; replicon cells
U-2 OS cells [16] = tested on: U-2 OS cells

T3 sequence (P13887 1-2479 limits assumed): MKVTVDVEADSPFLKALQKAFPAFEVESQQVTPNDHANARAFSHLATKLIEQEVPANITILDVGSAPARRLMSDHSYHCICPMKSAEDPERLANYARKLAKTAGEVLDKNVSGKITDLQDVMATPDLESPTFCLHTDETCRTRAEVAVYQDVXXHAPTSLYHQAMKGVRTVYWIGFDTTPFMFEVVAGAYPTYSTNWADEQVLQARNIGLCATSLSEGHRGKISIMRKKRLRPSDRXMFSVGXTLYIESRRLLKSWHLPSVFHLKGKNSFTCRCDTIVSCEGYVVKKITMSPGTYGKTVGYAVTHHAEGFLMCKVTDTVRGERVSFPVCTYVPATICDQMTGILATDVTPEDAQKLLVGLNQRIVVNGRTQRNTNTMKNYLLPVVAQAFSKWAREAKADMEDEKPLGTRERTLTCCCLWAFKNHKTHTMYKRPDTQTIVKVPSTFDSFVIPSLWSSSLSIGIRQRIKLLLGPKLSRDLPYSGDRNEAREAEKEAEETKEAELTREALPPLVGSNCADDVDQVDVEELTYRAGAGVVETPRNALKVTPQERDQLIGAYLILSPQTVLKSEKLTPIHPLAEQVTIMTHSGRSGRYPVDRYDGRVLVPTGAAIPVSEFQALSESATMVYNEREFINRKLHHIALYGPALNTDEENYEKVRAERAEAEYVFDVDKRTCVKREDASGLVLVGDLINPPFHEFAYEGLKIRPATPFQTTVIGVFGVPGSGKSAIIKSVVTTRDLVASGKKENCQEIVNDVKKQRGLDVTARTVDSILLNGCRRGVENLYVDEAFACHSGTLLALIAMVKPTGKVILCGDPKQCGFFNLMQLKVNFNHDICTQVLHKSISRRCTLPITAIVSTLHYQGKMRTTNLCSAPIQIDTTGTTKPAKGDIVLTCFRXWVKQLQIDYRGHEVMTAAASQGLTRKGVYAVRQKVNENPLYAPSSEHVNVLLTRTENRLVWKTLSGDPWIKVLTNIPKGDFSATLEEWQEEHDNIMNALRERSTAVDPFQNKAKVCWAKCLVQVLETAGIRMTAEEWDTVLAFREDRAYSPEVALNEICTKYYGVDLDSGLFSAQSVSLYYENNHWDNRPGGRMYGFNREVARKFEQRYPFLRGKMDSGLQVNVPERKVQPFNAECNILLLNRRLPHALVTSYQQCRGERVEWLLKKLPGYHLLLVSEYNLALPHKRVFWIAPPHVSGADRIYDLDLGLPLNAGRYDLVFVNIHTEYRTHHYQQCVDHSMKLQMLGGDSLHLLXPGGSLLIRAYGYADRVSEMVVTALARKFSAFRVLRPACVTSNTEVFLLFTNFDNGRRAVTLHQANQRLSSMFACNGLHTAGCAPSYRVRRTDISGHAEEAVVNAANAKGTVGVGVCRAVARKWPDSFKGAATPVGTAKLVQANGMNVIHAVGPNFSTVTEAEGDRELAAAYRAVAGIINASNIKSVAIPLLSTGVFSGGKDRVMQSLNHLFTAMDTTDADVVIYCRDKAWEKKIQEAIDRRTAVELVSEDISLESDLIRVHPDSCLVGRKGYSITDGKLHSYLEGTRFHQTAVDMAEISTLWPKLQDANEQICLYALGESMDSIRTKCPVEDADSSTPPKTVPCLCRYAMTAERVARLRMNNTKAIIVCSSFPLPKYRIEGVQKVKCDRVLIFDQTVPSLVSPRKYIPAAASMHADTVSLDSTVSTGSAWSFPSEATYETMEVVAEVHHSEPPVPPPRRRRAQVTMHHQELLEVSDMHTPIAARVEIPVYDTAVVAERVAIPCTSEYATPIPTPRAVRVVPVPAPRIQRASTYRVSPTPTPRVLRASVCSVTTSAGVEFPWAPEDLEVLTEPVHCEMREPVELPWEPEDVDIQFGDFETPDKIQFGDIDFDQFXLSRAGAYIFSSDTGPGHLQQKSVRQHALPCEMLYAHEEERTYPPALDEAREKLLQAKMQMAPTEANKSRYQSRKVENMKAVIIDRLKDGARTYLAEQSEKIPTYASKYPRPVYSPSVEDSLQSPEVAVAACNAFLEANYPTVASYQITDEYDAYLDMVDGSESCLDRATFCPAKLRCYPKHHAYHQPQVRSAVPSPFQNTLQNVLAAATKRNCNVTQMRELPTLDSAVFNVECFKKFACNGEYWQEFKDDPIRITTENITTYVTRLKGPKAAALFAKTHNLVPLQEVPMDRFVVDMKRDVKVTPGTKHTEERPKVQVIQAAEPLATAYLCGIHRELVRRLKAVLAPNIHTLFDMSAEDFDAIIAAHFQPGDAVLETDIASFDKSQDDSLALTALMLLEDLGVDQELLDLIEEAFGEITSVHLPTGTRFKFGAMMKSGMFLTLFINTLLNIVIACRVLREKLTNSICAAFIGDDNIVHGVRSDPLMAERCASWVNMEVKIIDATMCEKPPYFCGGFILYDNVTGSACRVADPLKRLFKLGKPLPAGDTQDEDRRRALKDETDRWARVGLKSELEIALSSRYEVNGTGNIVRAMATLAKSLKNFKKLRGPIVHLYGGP
T3 sequence (P13887 1-533 partner limits assumed): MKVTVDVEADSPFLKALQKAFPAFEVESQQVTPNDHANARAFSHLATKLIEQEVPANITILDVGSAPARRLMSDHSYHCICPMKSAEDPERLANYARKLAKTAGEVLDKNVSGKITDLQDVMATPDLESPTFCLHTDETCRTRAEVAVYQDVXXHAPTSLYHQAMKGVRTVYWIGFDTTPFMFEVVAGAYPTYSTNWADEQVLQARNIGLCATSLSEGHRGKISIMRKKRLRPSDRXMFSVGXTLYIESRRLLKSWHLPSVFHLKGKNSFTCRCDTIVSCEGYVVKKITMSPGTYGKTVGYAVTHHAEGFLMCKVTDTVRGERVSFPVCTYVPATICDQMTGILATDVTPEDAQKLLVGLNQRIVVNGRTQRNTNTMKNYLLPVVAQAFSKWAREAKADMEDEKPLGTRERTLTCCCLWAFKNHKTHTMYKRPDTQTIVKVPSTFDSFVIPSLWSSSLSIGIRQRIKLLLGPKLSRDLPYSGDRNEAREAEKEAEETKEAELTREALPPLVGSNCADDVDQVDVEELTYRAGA
T3 sequence (P13887 534-1331 partner limits assumed): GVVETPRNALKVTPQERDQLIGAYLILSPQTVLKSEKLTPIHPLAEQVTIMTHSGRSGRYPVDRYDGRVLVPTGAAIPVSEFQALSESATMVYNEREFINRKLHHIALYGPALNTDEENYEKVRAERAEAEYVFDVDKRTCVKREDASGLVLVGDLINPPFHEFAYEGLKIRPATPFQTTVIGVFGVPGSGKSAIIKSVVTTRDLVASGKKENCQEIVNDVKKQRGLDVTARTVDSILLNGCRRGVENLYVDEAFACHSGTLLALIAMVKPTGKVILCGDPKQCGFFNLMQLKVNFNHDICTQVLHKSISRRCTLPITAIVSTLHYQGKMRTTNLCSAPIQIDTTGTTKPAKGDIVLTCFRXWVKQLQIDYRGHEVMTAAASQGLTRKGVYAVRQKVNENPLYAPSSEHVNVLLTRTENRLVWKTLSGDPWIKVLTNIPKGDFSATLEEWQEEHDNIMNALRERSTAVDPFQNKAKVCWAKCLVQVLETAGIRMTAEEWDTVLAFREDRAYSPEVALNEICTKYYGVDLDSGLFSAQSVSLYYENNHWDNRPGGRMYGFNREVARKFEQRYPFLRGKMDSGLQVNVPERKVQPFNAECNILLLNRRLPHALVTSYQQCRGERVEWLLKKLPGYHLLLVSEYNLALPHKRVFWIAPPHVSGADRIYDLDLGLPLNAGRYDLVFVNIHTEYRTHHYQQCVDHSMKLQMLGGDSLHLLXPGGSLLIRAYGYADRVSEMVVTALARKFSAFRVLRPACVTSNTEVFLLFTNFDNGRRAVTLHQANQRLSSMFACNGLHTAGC

## N-[2-(4-fluorophenyl)ethyl]-1,5-dimethyl-N-[(2-methylpyrazol-3-yl)methyl]pyrazole-4-sulfonamide [GAP-1146924]
[1]
  Normalized percent inhibition in primary screen: 91.8%
VEEV-TC83-nLuc
  EC50: 35.2 µM
SINV-GLuc
  EC50: > 100 µM
HPIV3-nLuc
  EC50: > 100 µM
SARS-CoV-2-nLuc
  EC50: > 100 µM
RSV A2-L19F
  EC50: > 10 µM
VSV-nLuc
  EC50: > 100 µM
CHIKV-nLuc [2]
  EC50: 23.4 ± 2.44 µM
CHIKV-nLuc [3]
  EC50: 9.33 µM
U-2 OS cells [4]
  CC50: > 500 µM
NHDF cells
  CC50: > 500 µM
CHIKV 181/25; MOI 0.1, supernatant 24 hpi titered by FFA (Fig. 5), read-out: EC50 virus production, CHIKV
  EC50: 16.5 ± 3.99 µM
CHIKV 181/25; resistance study (Fig. 7), read-out: EC50 virus production, CHIKV WT
  EC50: 19.7 ± 7.78 µM
ONNV
  EC50: 6.09 ± 2.2 µM
RRV
  EC50: > 100 µM
SINV
  EC50: > 100 µM
MAYV
  EC50: 13 ± 5.14 µM
SFV
  EC50: > 100 µM
[5]
  Effect on RNA replication (GLuc) in trans-replicase assay, CHIKV: inhibited RNA replication
[6]
  Effect on RNA replication (GLuc) in trans-replicase assay, ONNV: inhibited RNA replication
[7]
  Effect on RNA replication (GLuc) in trans-replicase assay, RRV: some GAP-1146924 inhibition
[8]
  Effect on RNA replication (GLuc) in trans-replicase assay, SINV: some GAP-1146924 inhibition
[9]
  Effect on RNA replication (GLuc) in trans-replicase assay, SFV: some GAP-1146924 inhibition
[10]
  Effect on RNA replication (GLuc) in trans-replicase assay, BFV: inhibited RNA replication
[11]
  Effect on RNA replication (GLuc) in trans-replicase assay, EEEV: some inhibition
[12]
  Effect on RNA replication (GLuc) in trans-replicase assay, WEEV: some inhibition
[13]
  Effect on RNA replication (GLuc) in trans-replicase assay, VEEV: some inhibition
[14]
  Effect on RNA replication (GLuc) in trans-replicase assay, EILV: some inhibition
CHIKV-nLuc [15]
  Time-of-addition profile (stage of replication targeted): act on a stage after viral entry
CHIKV replicon
  EC50: 9.2 µM
VeroE6 cells
  CC50: > 100 µM
U-2 OS cells [16]
  CC50: > 100 µM
